Earlier results on one compound are cited in patent US20080287471A1, “4'-Substituted Carbovir And Abacavir-Derivatives As Well As Related Compounds With Hiv And Hcv Antiviral Activity” (priority 2003, published 2008).

The test system of this data set is HIV. Conditions: after a short course of abacavir monotherapy.

Turning to `Nc1nc(NC2CC2)c2ncn([C@H]3C=C[C@@H](CO)C3)c2n1` [abacavir, Abacavir], the “average reduction in viral load” value is “more than 1.4 log 10 RNA copies/ml”.
